# Test results published in US9833436B2, “Method of preparing drug agglomerate” (PharmaDax Inc., priority 2014, dated 2017).
# Where a name gives a salt, the structure may show the parent alone. Read-outs that look alike come from different tables or passages of the source.
# Experiments:
# [1] = pH 6.8 PBS 500 mL, basket 100 rpm, 37° C.
# [2] = Compatibility with HPMCP HP-50 by residual content (% assay) after storage; format: physicochemical
# Procedure: In comparison, duloxetine crude materials and granulated duloxetine particles having similar size obtained by the conventional wet granulation were also assayed. The granulated duloxetine particles were granulated by the same second solvent (e.g., acetonitrile), which was used in the process of spherical agglomeration, and dried at 50° C. until LOD<1%. An enteric material, hypromellose phthalate (HPMCP) HP-50, which is known to cause degradation of duloxetine, was used in this test.
# FIGS. 4A-D are electronic microscopic diagram of duloxetine in different states. […] In Table 7, “C” refers to crude material. “SA” refers to spherical agglomerates. “G” refers to granulated duloxetine particles.
structure (smiles),measurement,setting,value
"CNCC[C@H](Oc1cccc2ccccc12)c1cccs1 [Crude, duloxetine hydrochloride]",Duloxetine Release (%),[1]; 3 min,89.3%
same,Duloxetine Release (%),[1]; 6 min,95.8%
same,Duloxetine Release (%),[1]; 9 min,97.5%
same,Duloxetine Release (%),[1]; 12 min,98.4%
same,Duloxetine Release (%),[1]; 15 min,98.8%
same,Duloxetine Release (%),[1]; 18 min,99.1%
same,Duloxetine Release (%),[1]; 21 min,99.4%
same,Duloxetine Release (%),[1]; 30 min,99.9%
same,Duloxetine Release (%),[1]; 60 min,100.9%
same,% Assay (residual content),[2],98.39%
